What was measured:
DRPA (BAA-2108) = assay: Checkerboard assay with meropenem against DRPA; format: cell-based; settings: Pseudomonas aeruginosa, BAA2108, single agent
Method: The degree of synergism was determined using a checkerboard assay in a 96-well plate (FIG. 4b). […] Combinations of the two treatments were prepared using the 2-fold dilution method to determine the fractional inhibitory concentration (FIC; Table S2). The FIC index is used to determine whether two treatments are synergistic (χ≤0.5), additive (0.5<χ<4) or antagonistic (χ≥4).^38 Checkerboard assay.

PA = format: cell-based, Pseudomonas aeruginosa; settings: sub-lethal concentration, after 13 days
Method: Drug resistance study. The MIC was determined using a broth dilution method. […] The as-prepared bacterial solutions were incubated at 37° C. for 24 h. After incubation, the MIC was determined as the lowest concentration that inhibited visible growth of the tested microorganisms with unaided eyes. This same procedure was done by serial passaging of the bacteria until 30 days. Later on, three types of mutant DSPA were prepared by treating with Ag NPs, ciprofloxacin and meropenem for 15 days.

Row | MIC (DRPA (BAA-2108)) [µg/mL] | Compound | MIC increase (fold) (PA)
1 | 2 | C[C@@H](O)[C@H]1C(=O)N2C(C(=O)O)=C(S[C@@H]3CN[C@H](C(=O)N(C)C)C3)[C@H](C)[C@H]12 [meropenem] | 
2 |  | O=C(O)c1cn(C2CC2)c2cc(N3CCNCC3)c(F)cc2c1=O [ciprofloxacin] | 32

From patent publication US20230233477A1, “Bi2O3 NANOPARTICLES PREPARED BY THE TOP-DOWN ULTRASONICATION ROUTE AS A BROAD-[sequence] ANTIMICROBIAL TO OVERCOME DRUG RESISTANCE IN ANTIBIOTICS” (KENT STATE UNIVERSITY, priority 2022, published 2023)
